From ChEMBL document CHEMBL5725892, “Triazolo[4,5-D]pyrimidine derivatives” (2017)
pEC50: −log10 of the molar value.

Target: Cannabinoid receptor 2 (Homo sapiens, UniProt P34972)
Experiment: cAMP Assay: CHO cells expressing human CB1 or CB2 receptors are seeded 17-24 hours prior to the experiment 50.000 cells per well in a black 96 well plate with flat clear bottom (Corning Costar #3904) in DMEM (Invitrogen No. 31331), 1×HT supplement, with 10% fetal calf serum and incubated at 5% CO2 and 37° C. in a humidified incubator. The growth medium was exchanged with Krebs Ringer Bicarbonate buffer with 1 mM IBMX and incubated at 30° C. for 30 min. Compounds were added to a final assay volume of 100 μl and incubated for 30 min at 30° C. Using the cAMP-Nano-TRF detection kit the assay (Roche Diagnostics) was stopped by the addition of 50 μl lysis reagent (Tris, NaCl, 1.5% Triton X100, 2.5% NP40, 10% NaN3) and 50 μl detection solutions (20 μM mAb Alexa700-cAMP 1:1, and 48 μM Ruthenium-2-AHA-cAMP) and shaken for 2 h at room temperature. The time-resolved energy transfer is measured by a TRF reader (Evotec Technologies GmbH), equipped with a ND:YAG laser as excitation source. The plate is measured twice with the excitation at 355 nm and at the emission with a delay of 100 ns and a gate of 100 ns, total exposure time 10 s at 730 (bandwidth 30 nm) or 645 nm (bandwidth 75 nm), respectively. […]

Chain of Cannabinoid receptor 2 (P34972 whole entry): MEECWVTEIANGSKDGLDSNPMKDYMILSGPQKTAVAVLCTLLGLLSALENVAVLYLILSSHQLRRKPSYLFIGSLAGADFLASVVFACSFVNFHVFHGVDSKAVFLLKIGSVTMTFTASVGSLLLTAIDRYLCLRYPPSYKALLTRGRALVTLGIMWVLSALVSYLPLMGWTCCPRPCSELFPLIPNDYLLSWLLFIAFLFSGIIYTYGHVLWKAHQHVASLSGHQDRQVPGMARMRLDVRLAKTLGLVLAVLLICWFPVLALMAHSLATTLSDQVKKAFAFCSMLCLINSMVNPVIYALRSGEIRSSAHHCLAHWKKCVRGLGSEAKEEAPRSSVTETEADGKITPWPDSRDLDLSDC

CC(=O)N[C@H]1CCN(c2nc(O[C@@H](C)C(F)(F)F)nc3c2nnn3Cc2ccccc2C(F)(F)F)C1
pEC50: 7.10
